{"source": "patent US20090247599A1", "about": "“METHODS OF TREATING CELL PROLIFERATIVE DISORDERS USING A COMPRESSED TEMOZOLOMIDE DOSING SCHEDULE” (Schering Corporation, priority 2005, published 2009)", "key": {"[1]": {"tested_on": "LOX human melanoma xenograft tumors", "test": "LOX xenograft tumor growth in SCID mice", "format": "in vivo", "details": "i.p., 72 mg/kg total dose", "description": "(§1) In brief, female athymic nude mice or female SCID mice (4-6 week old) from Charles River Laboratories were maintained in a VAF-barrier facility. Animal procedures were performed in accordance with the rules set forth in the N.I.H. guide for the care and use of laboratory animals.\n(§2) DAOY human medulloblastoma cells (5×10^6), U373 human glioma cells (5×10^6), LOX human melanoma cells (5×10^5), and A375 human melanoma cells (5×10^6) were inoculated subcutaneously in the right flank of the animal (LOX in SCID mice; DAOY, U373, and A375 in nude mice). To facilitate in vivo growth, Matrigel was mixed with DAOY and A375 cells (50%) before inoculation. When tumor volumes were approximately 100 mm^3, animals were randomized and grouped (n=10 LOX, DAOY, and A375; n=9 U373). Tumor volumes and body weight were measured twice weekly using Labcat™ computer application (Innovative Programming Associates, N.J.). Tumor volumes were calculated by the formula (W×L×H)×π×⅙. TMZ was administered by intraperitoneal injections with 20% HPβCD (containing 1% DMSO) as vehicle.\nMice bearing xenograft tumors of LOX human melanoma cells, a low MGMT level cell line, were treated with TMZ using two different schedules. The same total dose was administered evenly divided over the course of either: (i) 4 or (ii) 12 days. […]"}, "[2]": {"tested_on": "U373 human glioma xenograft tumors", "test": "U373 xenograft tumor growth in nude mice", "format": "in vivo", "details": "i.p.", "description": "as §1, §2\nMice bearing xenograft tumors of U373 human glioma cells, a high MGMT level cell line, were treated with TMZ for 5 consecutive days (day 1 through day 5) over a cycle that is at least a 28-day cycle. […]"}}, "data": [{"smiles": "Cn1nnc2c(C(N)=O)ncn2c1=O", "note": "[TMZ, 3,4-dihydro-3-methyl-4-oxoimidazo[5,1-d]-as-tetrazine-8-carboxamide]", "values": [{"measurement": "TGI", "setting": "[1]; 4-day treatment schedule (Day 1-4)", "result": 88, "unit": "%"}, {"measurement": "TGI", "setting": "[1]; 12-day schedule (Day 1-12)", "result": 50, "unit": "%"}, {"measurement": "TGI", "setting": "[2]; 35 mg/kg for 5 consecutive days (175 mg/kg total)", "result": 100, "unit": "%"}, {"measurement": "TGI", "setting": "[2]; 70 mg/kg for 5 consecutive days (350 mg/kg total)", "result": 113, "unit": "%"}]}]}
